Experimental data from paper PMC11892739, “Site-specific molecular glues for the 14-3-3/Tau pS214 protein–protein interaction via reversible covalent imine tethering” (RSC Medicinal Chemistry, 2025).

Tests used:
14-3-3ζ/p65 peptide = target: T1, 14-3-3ζ/p65 peptide (Homo sapiens, UniProt P63104); test: FA peptide screen, 14-3-3ζ titration to client peptide and compound: p65; assay type: binding; conditions: 250 μM compound, 100 nM peptide; +1 Ile
T1 construct: made in house; host or cells: NiCo21 (DE3) E. coli
Experimental: (§1) Since the hub protein 14-3-3 binds to hundreds of phosphoprotein partners, selectivity of PPI stabilization is a major challenge. The interplay of chemical reactivity, and the topology and functionality of the composite binding pocket shaped by 14-3-3 and Tau potentially provide entries towards selective stabilization. […] Here, 14-3-3ζ was titrated to a constant concentration of client peptide (100 nM) and compound (250 μM) to determine the SF250μM values for the particular 14-3-3 PPI. A variety of 14-3-3 binding proteins was represented in this client panel whereby the size and hydrophobicity of the +1 amino acid were varied. […]
(§2) chromatography (HisTrap high performance cartridges, Cytiva). […] Dialyzed protein was concentrated to ∼40 mg/mL, analyzed by Q -Tof LC/MS, and aliquots were flash -frozen for storage at −80 °C. […]
(§3) 0.1% (v/v) Tween20, 0.1% (w/v) BSA). […] Measurements were performed directly after plate preparation, using a Tecan SPARK plate reader at room temperature ( λex: 485±20 nm; λem: 535±25 nm; mirror: automatic; flashes: 30; settle time: 1 ms; gain: optimal; Z -position: calculated from well). […] All data were analyzed using GraphPad Prism (10.0.1) and fitted with a four -parameter logistic model (4PL) to determine binding affinities (dissociation constant, KD). […]
(§4) Fluorescence Anisotropy – peptide screen […]

14-3-3ζ/SOS1 peptide = target: T2, 14-3-3ζ/SOS1 peptide (Homo sapiens, UniProt P63104); test: FA peptide screen, 14-3-3ζ titration to client peptide and compound: SOS1; assay type: binding; conditions: 250 μM compound, 100 nM peptide; +1 Ala
T2 construct: made in house; host or cells: NiCo21 (DE3) E. coli
Experimental: as §1, §2, §3, §4

14-3-3ζ/ERRγ peptide = target: T3, 14-3-3ζ/ERRγ peptide (Homo sapiens, UniProt P63104); test: FA peptide screen, 14-3-3ζ titration to client peptide and compound: ERRγ; assay type: binding; conditions: 250 μM compound, 100 nM peptide; +1 Cys
T3 construct: made in house; host or cells: NiCo21 (DE3) E. coli
Experimental: as §1, §2, §3, §4

14-3-3ζ/CFTR peptide = target: T4, 14-3-3ζ/CFTR peptide (Homo sapiens, UniProt P63104); test: FA peptide screen, 14-3-3ζ titration to client peptide and compound: CFTR; assay type: binding; conditions: 250 μM compound, 100 nM peptide; +1 Val
T4 construct: made in house; host or cells: NiCo21 (DE3) E. coli
Experimental: as §1, §2, §3, §4

14-3-3/Pin1 complex = tested on: 14-3-3/Pin1 complex; parameters: method as in PMID 34047554; conditions: 100 μM compound; cited from earlier work

T4 sequence (P63104 whole entry): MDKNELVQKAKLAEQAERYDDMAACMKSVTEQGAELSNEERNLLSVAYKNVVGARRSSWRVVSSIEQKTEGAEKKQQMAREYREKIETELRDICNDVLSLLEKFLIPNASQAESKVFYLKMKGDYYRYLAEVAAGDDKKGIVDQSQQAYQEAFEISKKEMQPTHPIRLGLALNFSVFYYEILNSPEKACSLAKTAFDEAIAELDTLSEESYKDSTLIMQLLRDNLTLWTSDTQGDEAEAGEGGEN
T4 sequence (P13569 747-774 partner): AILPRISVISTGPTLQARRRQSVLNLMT
T1 sequence (P63104 whole entry, other chains not shown): as the sequence (P63104 whole entry) above
T3 sequence (P63104 whole entry, other chains not shown): as the sequence (P63104 whole entry) above
T2 sequence (P63104 whole entry, other chains not shown): as the sequence (P63104 whole entry) above

Row | stabilization of 14-3-3/p65 peptide (in words) (14-3-3ζ/p65 peptide) | stabilization of 14-3-3/SOS1 peptide (in words) (14-3-3ζ/SOS1 peptide) | stabilization of 14-3-3/CFTR peptide (in words) (14-3-3ζ/CFTR peptide) | Structure (SMILES) | stabilization of 14-3-3/ERRγ peptide (in words) (14-3-3ζ/ERRγ peptide) | SF100μM for stabilization of the 14-3-3/Pin1 complex (14-3-3/Pin1 complex)
1 | minor off-target effects | minor off-target effects | minor off-target effects | CCc1ccc(-c2nccn2-c2ccc(C=O)c(Br)c2)cc1 [Compound 18] | did not show significant stabilizing activity | –
2 | – | – | – | O=Cc1ccc(-n2ccnc2-c2ccccc2)cc1Br [Compound 1] | – | 10
